{"source": "paper PMC2362731", "about": "“Phase I study of Carzelesin (U-80,244) given (4-weekly) by intravenous bolus schedule” (British Journal of Cancer, 1999)", "key": {"[1]": {"assay": "Plasma pharmacokinetics of Carzelesin and metabolites by HPLC, first course", "type": "in vivo, human", "method": "Carzelesin is a cyclopropylpyrroloindole analogue which acts as a DNA-sequence-specific alkylating agent. In this phase I study, Carzelesin was given as a 4-weekly 10 min IV infusion to 51 patients with advanced solid tumours. Patients received a median of two courses (range 1–5) at one of nine dose levels: 24, 48, 96, 130, 150, 170, 210, 250 and 300 μg m^−2. According to NCI-CTC criteria, non-haematological toxicities (grade 1/2) included fever, nausea and vomiting, mucositis and anorexia, none of which was clearly dose related. The dose-limiting toxicity was haematological and consisted mainly of neutropenia and to a lesser extent thrombocytopenia. From the dose level 150 μg m^−2, the haematological toxicity (particularly thrombocytopenia) was delayed in onset, prolonged and cumulative in some patients. In several courses, double WBC nadirs occurred. The maximum tolerated dose for a single course was 300 μg m^−2. From the dose level 170 μg m^−2, the intended dose intensity could not be delivered to most patients receiving > 2 courses owing to cumulative haematological toxicity. The dose level with the best dose intensity for multiple courses was 150 μg m^−2. The pharmacokinetics of Carzelesin and its metabolites (U-76,073; U-76,074) have been established in 31 patients during the first course of treatment using a HPLC method. […] The concentration of U-76,074 (active metabolite) extended above the lower limit of quantitation (1 ng ml^−1) for short periods of time and only at the higher dose levels. There was no relationship between neutropenia and the AUC of the prodrug Carzelesin, but the presence of detectable plasma levels of the active metabolite U-76,074 was usually associated with a substantial decrease in ANC values. © 1999 Cancer Research Campaign\nCarzelesin (U-80,244, Figure 1A) is a cyclopropylpyrroloindole (CPI) prodrug analogue of CC-1065. […] CPI drugs are a class of compounds with unique DNA interactive properties. These agents fit into the minor groove region of DNA, and the CPI function in the molecule mediates a covalent binding to the N3 position of adenine in A-T rich regions, thus forming DNA adducts in a sequence selective fashion (Hurley et al, 1984; Reynolds et al, 1985). Three new CPIs have now been developed. […] Bizelesin differs from the classical CPI drugs in that it contains two chloromethyl functions, which are both converted (via intramolecular rearrangements) to the CPI alkyl- ating species that interact with DNA. Consequently, this agent is capable of forming DNA interstrand cross-links (Lee et al, 1991). […] Therefore, efforts were directed to modu- late the alkylation rate by the preparation of CPI prodrugs that would require chemical or enzymatic conversion. The activation of Carzelesin is a two-step reaction with hydrolysis of the phenyl- urethane substituent to form the intermediate compound U-76,073, followed by ring closure to form the active product U-76,074 (Figure 1B). […] This higher efficacy may be related to the pharmacologic features of the compound. […] Phase I study of Carzelesin (U-80,244) given (4-weekly) by intravenous bolus schedule A Awada1, CJA Punt2, MJ Piccart1, O Van Tellingen3, L Van Manen2, J Kerger1, Y Groot4, J Wanders4, J Verweij5 and DJTh Wagener2 1Institut Jules Bordet, Bd de Waterloo 125, 1000 Brussels, Belgium; 2University Hospital, Geert Grooteplein 8, Box 9101, 6500 HB Nijmegen, The Netherlands; 3The Netherlands Cancer Institute (Antoni van Leeuwenhoek Huis), Plesmanlaan 121, 1066 CX Amsterdam, The Netherlands; 4European Organization for Research and Treatment of Cancer - New Drug Development Office, PO Box 7057, Amsterdam, The Netherlands; 5Rotterdam Cancer Institute, Groene Hilledijk 301, 3075 EA Rotterdam, The Netherlands; on behalf of the EORTC Early Clinical Studies Group and EORTC NDDO Summary Carzelesin is a cyclopropylpyrroloindole analogue which acts as a DNA-sequence-specific alkylating agent. […]"}, "[2]": {"test_system": "tumour cells cultured in vitro", "set-up": "method as in Li et al, 1992", "details": "compared with adozelesin; ref Li et al, 1992; cited from earlier work"}}, "data": [{"smiles": "CCN(CC)c1ccc2cc(C(=O)Nc3ccc4[nH]c(C(=O)N5C[C@@H](CCl)c6c5cc(OC(=O)Nc5ccccc5)c5[nH]cc(C)c65)cc4c3)oc2c1", "note": "[Carzelesin]", "values": [{"measurement": "time after drug administration until plasma level dropped below 1 ng ml-1", "setting": "[1]; dose level 24", "result": "≤ 1", "unit": "h"}, {"measurement": "peak plasma concentration", "setting": "[1]; dose level 24, also reported in Van Tellingen et al, 1998", "result": "about 10 ng ml-1"}, {"measurement": "mean peak plasma level", "setting": "[1]; highest dose level 300", "result": 63, "unit": "ng/mL"}, {"measurement": "pharmacokinetic behaviour (dose vs plasma AUC)", "setting": "[1]; in vivo", "result": "linear pharmacokinetics"}, {"measurement": "potency against tumour cells cultured in vitro", "setting": "[2]", "result": "less potent than adozelesin"}]}]}
